SMILES strings stand for the structures.

Consider `CN1CC(O)N(C(=O)NC2CCCC2)C1=O` (stereo unspecified), for which the log partition coefficient (logP) (as a rule, a log measure of how a compound divides between an organic and an aqueous phase) was found to be 1.47.
Compound `CCCCCNC(=O)N1C(=O)N(C)CC1O` (stereo unspecified) returned a logP of 1.75.
For the compound `CC1CCC(NC(=O)N2C(=O)N(C)CC2O)CC1` (stereo unspecified), the logP stood at 2.41.
`CCC(C)NC(=O)N1C(=O)N(C)CC1O` (stereo unspecified) showed a logP of 1.28.
Consider `CN1CC(O)N(C(=O)NC(C)(C)C)C1=O` (stereo unspecified), for which the logP is 1.38.
To `CN1CC(O)N(C(=O)Nc2ccccc2)C1=O` (stereo unspecified) belongs 1.44; to `CC1CCCCC1NC(=O)N1C(=O)N(C)CC1O` (stereo unspecified), 2.2.
The compound `CC(C)CNC(=O)N1C(=O)N(C)CC1O` (stereo unspecified) displayed a lipophilicity (logP) of 1.32.
To `CN1CC(O)N(C(=O)NCCCl)C1=O` (stereo unspecified) belongs 0.71.
As to `CCCNC(=O)N1C(=O)N(C)CC1O` (stereo unspecified), the logP came to 0.99.
The compound `CN1CC(O)N(C(=O)NC2CCCCCC2)C1=O` (stereo unspecified) returned a logP of 2.29.
Regarding `CCCCNC(=O)N1C(=O)N(C)CC1O` (stereo unspecified), the logP is 1.38.
The compound `CCCCCCNC(=O)N1C(=O)N(C)CC1O` (stereo unspecified) yielded a logP of 2.39.
As to `CN1CC(O)N(C(=O)NC2CCCCC2)C1=O` (stereo unspecified), the logP is 1.87.
`CC(C)NC(=O)N1C(=O)N(C)CC1O` (stereo unspecified) came in with a logP of 0.96.
`CCCCCCCCNC(=O)N1C(=O)N(C)CC1O` (stereo unspecified) yielded a logP of 3.46.

The values are drawn from the SangsterLogP compilation.
